Patent US20070254863A1 (priority 2006, published 2007)
Like-named read-outs stand apart in the source and are kept apart here.

Key:
hamster SUR1 = target: T1, hamster SUR1 (Cricetus cricetus, UniProt Q09427); assay: In vitro binding affinity to rodent KATP channels: SUR1 ([3H]glibenclamide displacement, COS cell membranes)
T1 construct: expressed in transfected cells; host or cells: COS-1 cells, transient (pcDNA vector)

[1] = system: rat perifused pancreatic islets; assay: KATP opening effects through insulin secretion in rat perifused pancreatic islets; format: cell-based; details: 11 mM glucose; for % Inhibition 0-30 (insulin secretion): 0-30 minutes; for % Inhibition 30-60 (insulin secretion): 30-60 minutes
Description: Determination of the KATP Opening Effects of Compounds Through Insulin Secretion in Rat Perifused Pancreatic Islets
The animals were maintained on a 12 h light-dark cycle (lights on 06.00-18.00 h) with free access to standard rodent diet (B&K Universal Ltd standard rat and mouse diet (BK 001P), Beekay Feeds, B&K Universal Ltd, Hull, East Riding of Yorkshire) and tap water. The rats were conditioned to this environment for at least one week before experimentation.
Experimental procedures: After the rats were sacrificed, the branch of the bile duct leading to the liver and the duodenal end of the duct in the pancreas were clamped and the pancreas distended by injection of ice-cold 0.9 mg/ml collagenase solution into the bile duct. […] Following incubation, 10 ml of cold buffer was added and the suspension shaken vigorously by hand for 1 min. The islets were allowed to settle for 5 min on ice and washed three times using ice-cold buffer. Well-formed and good-sized islets from three rats were hand-picked (under a low power microscope) and pooled and a final selection of islet transferred to the perifusion apparatus.
Two experiments were performed in parallel in two identical, independent sets of perifusion apparatus each consisting of sufficient number of chambers. Each chamber was loaded with 20 hand-picked islets. Islets were perifused for an initial 30 min period in media containing 4 mM glucose. Perifusate was then collected at 2 min intervals for the remainder of the experiment. […] Perifusate fractions were stored at −75° C. until required for insulin assay. Insulin content of fractions were assayed using a 96-well ELISA assay (Mercodia). Initial insulin assays were performed in triplicate on three pooled fractions from each chamber.
Data were initially expressed as a simple mean of the three experiments for insulin secretion (pg/islet/min) and multiple t-tests (against the corresponding vehicle time period) used to determine potential significant effects of treatments. Alternatively, data were also calculated as a % vehicle effect for each experimental day. This latter approach was deemed to be the more powerful analysis as it corrected for the day to day variation in insulin release from the islets.

[2] = target: human cannabinoid CB2 receptor (Homo sapiens, UniProt P34972); assay: biochemical; format: binding
Description: 3. In Vitro Binding Affinity of the Test Compounds to CB2 Receptors
After incubation of a freshly prepared cell membrane preparation with the [^3H]-ligand, with or without the addition of the compounds described herein, separation of bound and free ligand is performed by filtration over glass-fiber filters. Radioactivity on the filter is measured by liquid scintillation counting.

rat SUR2A = rat SUR2A (Rattus norvegicus, UniProt Q63563); assay: In vitro binding affinity to rodent KATP channels: SUR2A ([3H]P1075 / [3H]glibenclamide displacement, COS cell membranes)
Method in brief: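 COS-cell membranes transiently expressing rat SUR2A incubated 1 h at room temperature in 50 mM Tris pH 7.4, ~0.7 mM free Mg2+, with 3 nM [3H]P1075 (wild type) or [3H]glibenclamide (SUR2AY1205S); filtration read-out. Ki from IC50, reported as pKi; 9-15 concentrations per curve.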

[3] = hamster SUR1 in COS cell membranes, read-out: Affinity to SUR 1 (converted)
[4] = cloned human CB2 receptor expressed in CHO cells, read-out: Affinity to CB2 (converted)

T1 sequence (Q09427 whole entry): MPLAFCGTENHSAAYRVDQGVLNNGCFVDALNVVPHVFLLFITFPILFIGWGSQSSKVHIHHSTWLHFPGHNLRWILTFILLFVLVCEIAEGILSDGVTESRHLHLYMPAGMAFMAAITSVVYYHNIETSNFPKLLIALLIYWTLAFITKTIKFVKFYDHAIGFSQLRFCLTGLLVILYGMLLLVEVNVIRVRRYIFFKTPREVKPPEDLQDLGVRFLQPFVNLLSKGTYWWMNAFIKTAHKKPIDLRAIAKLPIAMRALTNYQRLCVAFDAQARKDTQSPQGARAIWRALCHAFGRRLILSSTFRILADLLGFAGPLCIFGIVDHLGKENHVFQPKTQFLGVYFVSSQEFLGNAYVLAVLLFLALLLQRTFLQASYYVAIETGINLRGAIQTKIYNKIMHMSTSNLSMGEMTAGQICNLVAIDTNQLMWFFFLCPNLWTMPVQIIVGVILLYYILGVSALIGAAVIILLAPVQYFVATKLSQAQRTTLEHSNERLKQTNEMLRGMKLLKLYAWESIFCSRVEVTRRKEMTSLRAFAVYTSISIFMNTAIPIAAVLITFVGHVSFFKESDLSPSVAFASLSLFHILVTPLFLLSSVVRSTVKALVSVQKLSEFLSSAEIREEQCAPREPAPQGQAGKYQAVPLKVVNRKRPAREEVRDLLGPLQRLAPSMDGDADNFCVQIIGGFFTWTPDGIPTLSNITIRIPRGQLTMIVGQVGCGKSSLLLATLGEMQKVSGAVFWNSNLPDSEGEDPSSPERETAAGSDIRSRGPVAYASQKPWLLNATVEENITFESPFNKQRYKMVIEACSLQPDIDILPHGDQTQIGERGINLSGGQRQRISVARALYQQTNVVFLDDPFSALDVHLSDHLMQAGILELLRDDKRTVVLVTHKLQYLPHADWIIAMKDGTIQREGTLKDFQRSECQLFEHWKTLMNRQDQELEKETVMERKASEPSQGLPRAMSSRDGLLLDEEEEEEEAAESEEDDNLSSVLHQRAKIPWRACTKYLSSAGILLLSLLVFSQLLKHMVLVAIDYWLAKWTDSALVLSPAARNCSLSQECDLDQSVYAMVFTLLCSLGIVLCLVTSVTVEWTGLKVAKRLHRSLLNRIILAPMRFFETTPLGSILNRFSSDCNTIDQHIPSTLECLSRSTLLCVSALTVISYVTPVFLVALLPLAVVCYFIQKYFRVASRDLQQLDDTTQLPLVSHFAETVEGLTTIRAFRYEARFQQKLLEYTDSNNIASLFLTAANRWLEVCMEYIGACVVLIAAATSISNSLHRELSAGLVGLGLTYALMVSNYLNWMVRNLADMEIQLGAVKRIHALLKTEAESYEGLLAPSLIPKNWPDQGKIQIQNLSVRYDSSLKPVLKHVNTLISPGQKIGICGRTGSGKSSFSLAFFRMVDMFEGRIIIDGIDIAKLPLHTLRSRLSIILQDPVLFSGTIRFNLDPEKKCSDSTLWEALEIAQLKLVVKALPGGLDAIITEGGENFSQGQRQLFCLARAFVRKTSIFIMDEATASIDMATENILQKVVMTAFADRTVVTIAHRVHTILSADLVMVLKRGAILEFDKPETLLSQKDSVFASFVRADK
Sequence of rat SUR2A (Q63563 whole entry): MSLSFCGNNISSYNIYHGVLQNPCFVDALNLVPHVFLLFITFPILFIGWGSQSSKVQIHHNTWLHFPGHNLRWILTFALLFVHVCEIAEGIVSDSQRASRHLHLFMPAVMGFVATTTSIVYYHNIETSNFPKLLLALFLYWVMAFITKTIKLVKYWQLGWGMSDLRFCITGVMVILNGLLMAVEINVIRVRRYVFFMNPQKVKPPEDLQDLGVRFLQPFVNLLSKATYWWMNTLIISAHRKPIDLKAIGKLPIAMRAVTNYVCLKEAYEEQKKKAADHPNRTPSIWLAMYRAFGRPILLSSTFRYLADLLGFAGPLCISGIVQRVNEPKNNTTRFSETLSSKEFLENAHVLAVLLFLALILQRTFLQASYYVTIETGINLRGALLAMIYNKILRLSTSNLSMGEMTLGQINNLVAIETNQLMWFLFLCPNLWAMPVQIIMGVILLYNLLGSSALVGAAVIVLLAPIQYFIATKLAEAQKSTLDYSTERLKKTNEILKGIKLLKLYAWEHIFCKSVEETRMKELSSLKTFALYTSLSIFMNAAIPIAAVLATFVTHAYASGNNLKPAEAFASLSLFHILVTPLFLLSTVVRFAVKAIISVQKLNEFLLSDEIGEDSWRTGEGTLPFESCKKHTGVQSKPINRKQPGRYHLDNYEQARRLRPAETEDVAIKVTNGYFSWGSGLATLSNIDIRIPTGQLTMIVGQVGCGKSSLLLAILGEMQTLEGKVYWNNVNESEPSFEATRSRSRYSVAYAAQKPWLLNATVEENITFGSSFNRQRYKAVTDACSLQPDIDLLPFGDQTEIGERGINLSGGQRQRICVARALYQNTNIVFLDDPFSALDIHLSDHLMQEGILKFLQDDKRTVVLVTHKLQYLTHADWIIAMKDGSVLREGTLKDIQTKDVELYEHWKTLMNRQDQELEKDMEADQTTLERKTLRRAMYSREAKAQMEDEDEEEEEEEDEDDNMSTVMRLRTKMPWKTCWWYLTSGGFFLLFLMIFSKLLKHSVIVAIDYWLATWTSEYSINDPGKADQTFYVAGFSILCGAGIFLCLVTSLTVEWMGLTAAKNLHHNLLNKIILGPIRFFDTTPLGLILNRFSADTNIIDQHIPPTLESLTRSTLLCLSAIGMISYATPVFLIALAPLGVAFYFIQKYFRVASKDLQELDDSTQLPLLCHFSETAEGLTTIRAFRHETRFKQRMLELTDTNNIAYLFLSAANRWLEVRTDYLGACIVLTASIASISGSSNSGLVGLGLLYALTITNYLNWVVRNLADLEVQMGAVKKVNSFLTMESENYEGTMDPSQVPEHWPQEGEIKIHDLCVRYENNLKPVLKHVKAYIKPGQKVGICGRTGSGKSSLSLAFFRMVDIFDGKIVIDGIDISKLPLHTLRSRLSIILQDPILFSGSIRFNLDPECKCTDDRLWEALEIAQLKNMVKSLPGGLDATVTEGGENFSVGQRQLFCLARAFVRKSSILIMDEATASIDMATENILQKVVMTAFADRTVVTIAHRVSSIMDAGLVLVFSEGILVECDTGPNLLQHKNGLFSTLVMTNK
Sequence of human cannabinoid CB2 receptor (P34972 whole entry): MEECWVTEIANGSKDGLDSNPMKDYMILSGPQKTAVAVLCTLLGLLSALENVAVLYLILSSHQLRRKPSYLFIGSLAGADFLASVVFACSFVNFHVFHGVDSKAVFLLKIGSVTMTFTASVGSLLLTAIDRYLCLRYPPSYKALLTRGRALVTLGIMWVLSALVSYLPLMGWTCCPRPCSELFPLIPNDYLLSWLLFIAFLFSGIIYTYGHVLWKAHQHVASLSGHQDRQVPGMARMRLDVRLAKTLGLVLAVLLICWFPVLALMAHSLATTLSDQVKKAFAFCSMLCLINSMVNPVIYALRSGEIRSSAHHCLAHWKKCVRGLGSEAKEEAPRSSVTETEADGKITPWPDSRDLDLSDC

For Cc1c(C(=O)NN2CCCCC2)nn(-c2ccc(Cl)cc2Cl)c1-c1ccc(Cl)cc1 [Rimonabant, 5-(4-Chloro-phenyl)-1-(2,4-dichloro-phenyl)-4-methyl-1H-pyrazole-3-carboxylic acid piperidin-1-ylamide, reference compound], the Ki (hamster SUR1; [3]) was 5010 nM, the “% Inhibition 0-30 (insulin secretion)” value [1] was 22% and the “% Inhibition 30-60 (insulin secretion)” value [1] was 18%.

Cc1c(C(=O)c2cccc3ccccc23)c2cccc3c2n1[C@H](CN1CCOCC1)CO3 [R(+)-WIN55212-2, (2-Methyl-3-morpholin-4-ylmethyl-3,4-dihydro-5-oxa-2a-azacenaphthylen-1-yl)-naphthalen-1-yl-methanone, reference compound] was tested, and the Ki (hamster SUR1; [3]) was 39800 nM, the “% Inhibition 0-30 (insulin secretion)” value [1] was 80% and the “% Inhibition 30-60 (insulin secretion)” value [1] was 35%.

With CON/C(=N\S(=O)(=O)c1ccc(Cl)cc1)N1C[C@H](c2cccc(F)c2)C(c2ccc(Cl)cc2)=N1 (stereo in doubt) [4-Chloro-N-{[3-(4-chloro-phenyl)-4-(3-fluoro-phenyl)-4,5-dihydro-pyrazol-1-yl]-methoxyamino-methylene}-benzenesulfonamide] the “% Inhibition 0-30 (insulin secretion)” value [1] was 90% and the “% Inhibition 30-60 (insulin secretion)” value [1] was 95%.

In the case of CCc1c(C(=O)NN2CCCCC2)nc(-c2ccc(Cl)cc2Cl)n1-c1ccc(Cl)cc1 [1-(4-Chloro-phenyl)-2-(2,4-dichloro-phenyl)-5-ethyl-1H-imidazol-4-carboxylic acid piperidin-1-ylamide], the Ki [2] is reported as 501 nM, the Ki (hamster SUR1; [3]) is reported as 5010 nM and the pKi (rat SUR2A) is reported as 5.5.

With Cc1c(C(=O)NN2CCCCC2)nc(-c2ccc(Cl)cc2Cl)n1-c1ccccn1 [2-(2,4-Dichloro-phenyl)-5-methyl-1-pyridin-2-yl-1H-imidazole-4-carboxylic acid piperidin-1-ylamide] the Ki [2, 4] was 631 nM, the Ki (hamster SUR1; [3]) was 100000 nM and the pKi (rat SUR2A) was 4.1.

In the case of N=C(N)C1=NN(c2ccc(Cl)cc2)C(c2ccccc2)C1 (centres unmarked) [1-(4-Chloro-phenyl)-5-phenyl-4,5-dihydro-1H-pyrazole-3-carboxamidine], the Ki [2, 4] is reported as 501 nM, the Ki (hamster SUR1; [3]) is reported as 100000 nM and the pKi (rat SUR2A) is reported as 4.0.

CN/C(=N\S(=O)(=O)c1ccc(Cl)cc1)N1C[C@H](c2ccccc2)C(c2ccc(Cl)cc2)=N1 was tested, and the Ki (hamster SUR1; [3]) was 501 nM, the “% Inhibition 0-30 (insulin secretion)” value [1] was 42% and the “% Inhibition 30-60 (insulin secretion)” value [1] was 22%.

In the case of Cc1c(C=C(c2cc(F)cc(F)c2)S(C)(=O)=O)nn(-c2ccc(Cl)cc2Cl)c1-c1ccc(Br)cc1 [5-(4-Bromo-phenyl)-1-(2,4-dichloro-phenyl)-3-(2-(3,5-difluoro-phenyl)-2-methanesulfonyl-vinyl]-4-methyl-1H-pyrazole], the Ki [2, 4] is reported as 1260 nM, the Ki (hamster SUR1; [3]) is reported as 100000 nM and the pKi (rat SUR2A) is reported as 4.0.

Molecule O=C(NN1CCCCC1)C1=NN(c2ccc(Cl)cc2Cl)C(c2ccc(Cl)cc2)C1 (centres unmarked) [5-(4-Chloro-phenyl)-1-(2,4-dichloro-phenyl)-4,5-dihydro-1H-pyrazole-3-carboxylic acid piperidine-1-ylamide] has a Ki [2, 4] of 794 nM, a Ki (hamster SUR1; [3]) of 3980 nM and a pKi (rat SUR2A) of 5.6.

In the case of CSc1c(C(=O)NN2CCCCC2)nc(-c2ccc(Cl)cc2Cl)n1-c1ccc(Cl)cc1 [1-(4-Chloro-phenyl)-2-(2,4-dichloro-phenyl)-5-methylsulfanyl-1H-imidazole-4-carboxylic acid piperidin-1-ylamide], the Ki [2, 4] is reported as 1000 nM, the Ki (hamster SUR1; [3]) is reported as 7940 nM and the pKi (rat SUR2A) is reported as 5.6.

With CCc1c(C(=O)NC2CCCCC2)nc(-c2ccc(Cl)cc2Cl)n1-c1ccc(Br)cc1 [1-(4-Bromo-phenyl)-2-(2,4-dichloro-phenyl)-5-ethyl-1H-imidazole-4-carboxylic acid cyclohexylamide] the Ki [2, 4] was 200 nM, the Ki (hamster SUR1; [3]) was 100000 nM and the pKi (rat SUR2A) was 5.1.

For Cc1c(C(=O)c2cccc3ccccc23)c2cccc3c2n1[C@H](CN1CCOCC1)CO3 [drawing 112, (2-Methyl-3-morpholin-4-ylmethyl-3,4-dihydro-5-oxa-2a-azacenaphthylen-1-yl)-naphthalen-1-yl-methanone, reference compound], the “% Inhibition 0-30 (insulin secretion)” value [1] was 69% and the “% Inhibition 30-60 (insulin secretion)” value [1] was 40%.

With CC(C)(CO)CN/C(=N\S(=O)(=O)c1ccc(Cl)cc1)N1CC(c2ccccc2)C(c2ccc(Cl)cc2)=N1 (centres unmarked) [4-Chloro-N-[[3-(4-chloro-phenyl)-4-phenyl-4,5-dihydro-pyrazol-1-yl]-(3-hydroxy-2,2-dimethyl-propylamino)-methylene]-benzenesulfonamide] the Ki [2, 4] was 794 nM, the Ki (hamster SUR1; [3]) was 31600 nM and the pKi (rat SUR2A) was 5.4.

With O=S(=O)(N=C(NCc1cccnc1)N1CC(c2ccccc2)C(c2ccc(Cl)cc2)=N1)c1ccc(Cl)cc1 (centres unmarked) [4-Chloro-N-{[3-(4-chloro-phenyl)-4-phenyl-4,5-dihydro-pyrazol-1-yl]-[(pyridin-3-ylmethyl)-amino]-methylene}-benzenesulfonamide] the Ki [2, 4] was 501 nM, the Ki (hamster SUR1; [3]) was 1260 nM and the pKi (rat SUR2A) was 5.7.

With CN/C(=N\S(=O)(=O)c1ccc(Cl)cc1)N1C[C@@H](c2ccccc2)C(c2ccc(Cl)cc2)=N1 (stereo in doubt) [4-Chloro-N-{[3-(4-chloro-phenyl)-4-phenyl-4,5-dihydro-pyrazol-1-yl]-methylamino-methylene}-benzenesulfonamide] the “% Inhibition 0-30 (insulin secretion)” value [1] was 59% and the “% Inhibition 30-60 (insulin secretion)” value [1] was 25%.

O=C(NN1CCCCC1)c1nc(-c2ccc(Cl)cc2Cl)n(-c2ccc(Cl)cc2)c1CO [1-(4-Chloro-phenyl)-2-(2,4-dichloro-phenyl)-5-hydroxymethyl-1H-imidazole-4-carboxylic acid piperidin-1-ylamide] was tested, and the Ki [2, 4] was 631 nM, the Ki (hamster SUR1; [3]) was 100000 nM and the pKi (rat SUR2A) was 4.7.

Molecule O=C(NN1CCCCC1)c1cn(-c2ccc(Cl)cc2)c(-c2ccc(Cl)cc2Cl)n1 [1-(4-Chloro-phenyl)-2-(2,4-dichloro-phenyl)-1H-imidazole-4-carboxylic acid piperidin-1-ylamide] has a Ki [2, 4] of 631 nM, a Ki (hamster SUR1; [3]) of 31600 nM and a pKi (rat SUR2A) of 5.3.

In the case of CN/C(=N\S(=O)(=O)N1CCOCC1)N1CC(c2ccccc2)C(c2ccc(Cl)cc2)=N1 (centres unmarked) [drawing 118, Morpholine-4-sulfonic acid [3-(4-chloro-phenyl)-4-phenyl-4,5-dihydro-pyrazol-1-yl]-methylamino-methyleneamide], the “% Inhibition 0-30 (insulin secretion)” value [1] is reported as 83% and the “% Inhibition 30-60 (insulin secretion)” value [1] is reported as 91%.

C[C@H](NS(C)(=O)=O)c1ccc(S(=O)(=O)c2ccc(Cl)cc2S(=O)(=O)c2ccccc2F)cc1 [N-(1-{4-[4-Chloro-2-(2-fluoro-benzenesulfonyl)-benzenesulfonyl]-phenyl}-ethyl)-methanesulfonamide, reference compound] showed a Ki [2] of 0.501 nM, a Ki (hamster SUR1; [3]) of 1260 nM and a pKi (rat SUR2A) of 4.7.

CSc1c(C(=O)NC2CCCCC2)nc(-c2ccc(Cl)cc2Cl)n1-c1ccc(Cl)cc1 [1-(4-Chloro-phenyl)-2-(2,4-dichloro-phenyl)-5-methylsulfanyl-1H-imidazole-4-carboxylic acid cyclohexylamide] was tested, and the “Affinity to CB2” value [2] was 6.6, the Ki (hamster SUR1; [3]) was 501 nM and the pKi (rat SUR2A; rat SUR2A in COS cell membranes) was 5.8.

For CNC(=NS(=O)(=O)N1CCCCC1)N1CC(c2cccc(F)c2)C(c2ccc(Cl)cc2)=N1 (centres unmarked) [Piperidine-1-sulfonic acid [3-(4-chloro-phenyl)-4-(3-fluoro-phenyl)-4,5-dihydro-pyrazol-1-yl]-methylamino-methyleneamide], the Ki [2, 4] was 794 nM, the Ki (hamster SUR1; [3]) was 31600 nM and the pKi (rat SUR2A) was 6.3.

Work on CCc1c(C(=O)NC2CCCCC2)nc(-c2ncccc2C)n1-c1ccc(Cl)cc1 [1-(4-Chloro-phenyl)-5-ethyl-2-(3-methyl-pyridin-2-yl)-1H-imidazole-4-carboxylic acid cyclohexylamide] yielded a Ki [2] of 794 nM, a Ki (hamster SUR1) of 100000 nM and a pKi (rat SUR2A) of 5.5.
